Data from US20240376363A1, “FLUORINE SUBSTITUTED CYCLOBUTENE COMPOUNDS, AND COMPOSITIONS, METHODS AND USES INCLUDING SAME” (HONEYWELL INTERNATIONAL INC., priority 2021, published 2024).

Legend:
[1] = long term (28 day) toxicity exposure; format: in vivo; settings: 28 day exposure
[2] = miscibility with mineral oil; format: physicochemical; settings: for Miscibility: with mineral oil, concentration up to which miscible
Description: In addition, the compounds of the present invention have good miscibility with lubricants, including lubricants used in vapour compression refrigeration systems. For example, the Compounds 1 and 3 are fully miscible with e mineral oil at concentrations up to about 66.7 weight percent as indicated in the following table.

flash point (ASTM D3828) = format: physicochemical
Method: Flash Point refers the lowest temperature at which vapors of the liquid will […] as determined in accordance with ASTM D3828.
Non-flammable in the context of a thermal management composition or fluid means compounds or compositions which are determined to be non-flammable. The flash point of a thermal management composition or fluid refers the lowest temperature at which vapors of the composition will keep burning after the ignition source is removed as determined in accordance with ASTM D3828.

[3] = short term (4 hour) toxicity exposure; format: in vivo; settings: 4 hour exposure
Description: LC50 is a measure of the acute toxicity of a compound. The acute inhalation toxicity of a compound can be assessed using the method described in the OECD Guideline for Testing of Chemicals No. 403 “Acute Inhalation Toxicity” (2009), Method B.2. (Inhalation) of Commission Regulation (EC) No. 440/2008.

heat of vaporization = format: physicochemical

FC1=C(Cl)CC1(F)F [Compound 1, 1-chloro-2,3,3-trifluorocyclo-1-ene]
long term (28 day) toxicity exposure [1]: failed | Miscibility [2]: Miscible up to 66.7% | Flash Point (flash point (ASTM D3828)): No flash point | Normal Boiling Point (normal boiling point): 52 °C

FC1=CCC1(F)F [Compound 2, 1,4,4-trifluorocyclobut-1-ene]
Miscibility with mineral oil ([2]; ratio compound to mineral oil): Not miscible | Flash Point (flash point (ASTM D3828)): Flash point observed | Normal Boiling Point (normal boiling point): 32 °C

FC1(F)C(Cl)=C(Cl)C1(F)F [Compound 3, 1,2-dichloro-3,3,4,4-tetrafluorocyclobut-1-ene]
short term (4 hour) toxicity exposure [3]: failed | Miscibility [2]: Miscible up to 66.7% | Flash Point (flash point (ASTM D3828)): No flash point | Normal Boiling Point (normal boiling point): 58 °C

COC1=C(Cl)C(F)(F)C1(F)F [Compound 4]
Normal Boiling Point (normal boiling point): 110 °C

COC1=C(OC)C(F)(F)C1(F)F [Compound 11, 3,3,4,4-tetrafluoro-1,2-dimethoxycyclobut-1-ene]
Normal Boiling Point (normal boiling point): 127 °C

FC(F)(F)OC1=C(OC(F)(F)F)C(F)(F)C1(F)F [Compound 13]
Heat of Vaporization (heat of vaporization): 7.65 kcal/mol | Normal Boiling Point (normal boiling point): 144 °C

FC1=C(OC(C(F)(F)F)C(F)(F)F)C(F)(F)C1(F)F [Compound 14, 1,3,3,4,4-pentafluoro-2-((1,1,1,3,3,3-hexafluoropropan-2-yl)oxy)cyclobut-1-ene]
Heat of Vaporization (heat of vaporization): 7.41 kcal/mol

FC(F)(F)C(OC1=C(OC(C(F)(F)F)C(F)(F)F)C(F)(F)C1(F)F)C(F)(F)F [Compound 15, 3,3,4,4-pentafluoro-1,2-bis((1,1,1,3,3,3-hexafluoropropan-2-yl)oxy) cyclobut-1-ene]
Heat of Vaporization (heat of vaporization): 8.13 kcal/mol

FC1=C(Oc2ccccc2)C(F)(F)C1(F)F [Compound 16, ((perfluorocyclobut-1-en-1-yl)oxy)benzene]
Heat of Vaporization (heat of vaporization): 10 kcal/mol

FC1(F)C(Oc2ccccc2)=C(Oc2ccccc2)C1(F)F [Compound 17, ((perfluorocyclobut-1-ene-1,2-diyl)bis(oxy))dibenzene]
Heat of Vaporization (heat of vaporization): 17.9 kcal/mol

FC(F)(F)COC1=C(Cl)C(F)(F)C1(F)F [Compound 18, 1-chloro-3,3,4,4-tetrafluoro-2-(2,2,2-trifluoroethoxy) cyclobut-1-ene]
Heat of Vaporization (heat of vaporization): 9.08 kcal/mol
